The source of these data is patent publication US20100172991A1, “Extended Release Formulation and Methods of Treating Adrenergic Dysregulation” (priority 2007, published 2010).

The conditions of series [1]: traditional oral formulation; cited from earlier work.
For series [2], the system named is systolic and diastolic blood pressure. Description: animal or person. On the procedure: Mean baseline ABPM data for the three treatment groups were compared with mean data obtained on Day 26 (last day of treatment) and on Days 27 and 28. A more detailed PK/PD analysis was conducted by using the individual patient ABPM data to compare the blood pressure profile at Baseline and on Day 26 of treatment. The daytime (0- to 12-hour) intervals were used in the analysis, since pharmacokinetic data were collected on Day 25, over the daytime 12-hour dosing interval at steady state. In order to investigate the maintenance of effect at the tail end of the inter-dosing interval, differences between the SBP, DBP, and HR values at Baseline and the last two hours in the inter-dosing interval (Hours 11 and 12) on Day 26 were calculated for each patient. Paired t-tests were performed to test the significance of these differences between Baseline and the last two measuring times. The approach taken to quantify the effects of clonidine on blood pressure was to calculate the difference between the areas under the BP vs. time curves (AUCBP) at Baseline and on Day 26. These values were used to relate the pharmacodynamic effect to dose, as well as to conduct the PK/PD analyses.
Pharmacokinetic-pharmacodynamic modeling was conducted using the blood pressure response data and the Cmax, Cmin and AUCτ values at Day 25 of dosing. […] The data in Table 8 summarize the PK/PD parameters from the sigmoidal Emax model.

Setting [3] is: sigmoidal Emax model, Day 25 exposure.

≈ marks a conversion by molar mass, not a printed value. Where two headings read alike, the source gives them in different places.

As to `Clc1cccc(Cl)c1NC1=NCCN1` [clonidine, 2,6-dichloro-N-2-imidazolidinylidene benzeneamine], the biological half-life entry in series [1] was “four to six”. Also, the EC50 – broadly, the concentration giving half of the maximal effect – in series [2] (Homo sapiens, 600 h, read-out: EC50, Diastolic BP vs Cmax) turned out to be 0.431 ng/mL (≈ 1.87 nM). The EC50 in series [2] (Homo sapiens, 600 h, read-out: EC50, Diastolic BP vs Cmin) came out at 0.341 ng/mL (≈ 1.48 nM). In series [2] (Homo sapiens, 600 h, read-out: EC50, Systolic BP vs Cmax), the EC50 turned out to be 0.458 ng/mL (≈ 1.99 nM). In series [2] (Homo sapiens, 600 h, read-out: EC50, Systolic BP vs Cmin), the EC50 worked out at 0.359 ng/mL (≈ 1.56 nM). For the same compound, the EC90 (usually the concentration needed for an effect of 90%) in series [2] (Homo sapiens, 600 h, read-out: EC90, Diastolic BP vs AUCτ) is 5.92 ng/mL (≈ 25.7 nM). In series [2] (setting [3]), the “Emax (ΔBP), Diastolic BP vs AUCτ” value is reported as 16.8; the “Emax (ΔBP), Diastolic BP vs Cmax” value was 16.7; the “Emax (ΔBP), Diastolic BP vs Cmin” value is 16.8; the “Emax (ΔBP), Systolic BP vs AUCτ” value turned out to be 24.3. For the same compound, in series [2] (setting [3]), the “Emax (ΔBP), Systolic BP vs Cmax” value was 24.3 and the “Emax (ΔBP), Systolic BP vs Cmin” value amounted to 24.4.
